Measurements from patent US20120232070A1, “Use of Indole Derivatives as Nurr-1 Activators for the Application Thereof as a Medicament for the Treatment of Parkinson's Disease” (Laboratoires Fournier SA, priority 2009, published 2012).

Tests used:
[1] = molecular target: hNurr1_RXRγFL (NURR1/RXRγ heterodimer) (Homo sapiens, UniProt P43354+P48443); experiment: Transactivation assay in Cos-7 cells, NURR-1-Gal4 / RXRγ, luciferase reporter; type: cell-based; conditions: for Emax: COS-7, read-out: hNurr1_RXRγFL Eff (%), efficacy in % relative to the reference XCT0135908 at 2·10^−5 M (=100%); for EC50: Cos-7 cells, overnight incubation
Chain of hNurr1_RXRγFL (NURR1/RXRγ heterodimer) (P43354 328-598): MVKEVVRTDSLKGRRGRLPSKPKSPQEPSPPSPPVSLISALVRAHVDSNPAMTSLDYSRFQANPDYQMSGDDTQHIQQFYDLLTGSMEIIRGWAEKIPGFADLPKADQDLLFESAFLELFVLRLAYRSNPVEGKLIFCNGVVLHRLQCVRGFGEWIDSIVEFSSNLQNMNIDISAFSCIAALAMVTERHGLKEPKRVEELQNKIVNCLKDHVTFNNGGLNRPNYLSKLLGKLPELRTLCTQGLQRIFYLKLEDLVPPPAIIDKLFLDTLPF
Chain of hNurr1_RXRγFL (NURR1/RXRγ heterodimer) (P48443 whole entry, the tested form may be a part): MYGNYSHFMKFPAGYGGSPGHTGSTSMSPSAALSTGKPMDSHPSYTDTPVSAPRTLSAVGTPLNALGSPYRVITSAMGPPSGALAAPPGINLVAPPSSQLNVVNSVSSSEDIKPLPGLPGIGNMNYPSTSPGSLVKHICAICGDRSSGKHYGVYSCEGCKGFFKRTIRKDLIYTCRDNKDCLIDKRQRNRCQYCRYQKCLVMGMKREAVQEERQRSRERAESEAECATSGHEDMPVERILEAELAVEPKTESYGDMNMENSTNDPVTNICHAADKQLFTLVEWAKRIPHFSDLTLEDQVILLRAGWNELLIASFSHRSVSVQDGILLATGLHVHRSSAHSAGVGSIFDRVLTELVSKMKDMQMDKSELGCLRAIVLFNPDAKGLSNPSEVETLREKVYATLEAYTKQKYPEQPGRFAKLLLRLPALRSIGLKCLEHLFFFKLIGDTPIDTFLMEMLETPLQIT
Procedure, shortened: (§1)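 Cos-7 cells co-transfected with human NURR-1-Gal4 chimera, human RXRα or RXRγ, and 5Gal4pGL3-TK-Luc reporter; compounds added at 10^−4 to 3·10^−10 M final, overnight incubation, luciferase read. Induction over each heterodimer's baseline expressed as % of reference RXR agonist XCT0135908 (2·10^−5 M) taken as 100%.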

[2] = molecular target: hNurr1_RXRαFL (NURR1/RXRα heterodimer) (Homo sapiens, UniProt P19793+P43354); experiment: Transactivation assay in Cos-7 cells, NURR-1-Gal4 / RXRα, luciferase reporter; type: cell-based; conditions: for Emax: COS-7, read-out: hNurr1_RXRαFL Eff (%), efficacy in % relative to the reference XCT0135908 at 2·10^−5 M (=100%); for EC50: Cos-7 cells, overnight incubation
Chain of hNurr1_RXRαFL (NURR1/RXRα heterodimer) (P19793 whole entry, the tested form may be a part): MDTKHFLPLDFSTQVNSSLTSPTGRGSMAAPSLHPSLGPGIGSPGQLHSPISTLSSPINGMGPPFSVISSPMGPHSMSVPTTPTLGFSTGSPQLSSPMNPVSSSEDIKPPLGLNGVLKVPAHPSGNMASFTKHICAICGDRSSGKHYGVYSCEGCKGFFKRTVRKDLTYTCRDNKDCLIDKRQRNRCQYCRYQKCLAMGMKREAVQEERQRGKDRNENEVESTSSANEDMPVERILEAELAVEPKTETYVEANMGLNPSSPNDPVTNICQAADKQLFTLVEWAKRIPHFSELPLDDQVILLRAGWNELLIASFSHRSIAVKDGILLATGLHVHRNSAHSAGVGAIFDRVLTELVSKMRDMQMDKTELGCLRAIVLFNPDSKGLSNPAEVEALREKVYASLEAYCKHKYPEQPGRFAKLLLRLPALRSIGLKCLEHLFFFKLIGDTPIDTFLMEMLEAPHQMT
Chain of hNurr1_RXRαFL (NURR1/RXRα heterodimer) (P43354 328-598): as the sequence (P43354 328-598) above
Procedure, shortened: as §1

[3] = efficacy in % relative to the reference XCT0135908 at 2·10^−5 M (=100%)

Row | Structure (SMILES) | Emax [1] [%] | EC50 [1] [nM] | Emax [2] [%] | EC50 [2] [nM] | hNurr1_RXRγFL Eff (%) [1, 3] [%] | hNurr1_RXRαFL Eff (%) [2, 3] [%]
1 | O=C(O)c1ccc(Cc2cc3cc(C(F)(F)F)ccc3n2S(=O)(=O)c2cccc(Cl)c2)cc1 [Example 143, 4-[[1-[3-chloro-phenylsulfonyl]-5-(trifluoromethyl)-1H-indol-2-yl]methyl]benzoic acid] | 18 | 425 | 33 | 339 | – | –
2 | Cc1cc(C(=O)O)ccc1Cc1cc2cc(C(F)(F)F)ccc2n1S(=O)(=O)c1cccc(C(C)(C)C)c1 [Example 197, 4-[[1-[[3-(1,1-dimethylethyl)phenyl]sulfonyl]-5-trifluoromethyl-1H-indol-2-yl]methyl]-3-methyl-benzoic acid] | 52 | 592 | 68 | 278 | – | –
3 | CC(C)Oc1ccc(S(=O)(=O)n2c(Cc3ccc(C(=O)O)cc3)cc3cc(Cl)ccc32)cc1 [Example 162, 4-[[1-[4-isopropoxy-phenylsulfonyl]-5-(chloro)-1H-indol-2-yl]methyl]benzoic acid] | 40 | 1550 | 56 | 692 | – | –
4 | O=C(O)c1ccc(Cc2cc3cc(C(F)(F)F)ccc3n2S(=O)(=O)c2ccc(F)cc2)cc1 [Example 137, 4-[[1-[4-fluoro-phenylsulfonyl]-5-(trifluoromethyl)-1H-indol-2-yl]methyl]benzoic acid] | 18 | 730 | 37 | 529 | – | –
5 | O=C(O)c1ccc(Cc2cc3cc(C(F)(F)F)ccc3n2S(=O)(=O)c2ccc3ccccc3c2)cc1 [Example 25, 4-[[1-(2-naphthalenylsulfonyl)-5-(trifluoromethyl)-1H-indol-2-yl]methyl]benzoic acid] | 33 | 864 | 47 | 496 | – | –
6 | O=C(O)c1ccc(Cc2cc3cc(C(F)(F)F)ccc3n2S(=O)(=O)c2ccc(F)c(Cl)c2)cc1 [Example 15, 4-[[1-[(3-chloro-4-fluorophenyl)sulfonyl]-5-(trifluoromethyl)-1H-indol-2-yl]methyl]benzoic acid] | 54 | 746 | 66 | 372 | – | –
7 | COC(=O)c1ccc(Cc2cc3cc(Cl)ccc3n2S(=O)(=O)c2ccc3c(c2)C(C)(C)CO3)cc1 [Example 182] | – | 154 | – | 55 | 85 | 83
8 | O=C(O)c1ccc(Cc2cc3cc(Cl)ccc3n2S(=O)(=O)c2ccc(Oc3ccccc3)nc2)cc1 [Example 175, 4-[[5-chloro-1-[(6-phenoxy-3-pyridinyl)sulfonyl]-1H-indol-2-yl]methyl]benzoic acid] | 14 | > 10000 | 38 | 331 | – | –
9 | O=C(O)c1ccc(Cc2cc3cc(C(F)(F)F)ccc3n2S(=O)(=O)c2cccc(SC(F)F)c2)cc1 [Example 126, 4-[[1-[3-difluoromethylsulfanyl-phenylsulfonyl]-5-(trifluoromethyl)-1H-indol-2-yl]methyl]benzoic acid] | 32 | 141 | 44 | 122 | – | –
10 | Cc1ccc(S(=O)(=O)n2c(Cc3ccc(C(=O)O)cc3)cc3cc(Cl)ccc32)cc1 [Example 171, 4-[[5-chloro-1-[(4-methylphenyl)sulfonyl]-1H-indol-2-yl]methyl]benzoic acid] | 31 | 944 | 40 | 510 | – | –
11 | CN1C(=O)COc2ccc(S(=O)(=O)n3c(Cc4ccc(C(=O)O)cc4)cc4cc(C(F)(F)F)ccc43)cc21 [Example 125, 4-[[1-[4-methyl-3-oxo-3,4-dihydro-2H-benzo[1,4]oxazine-6-sulfonyl]-5-(trifluoromethyl)-1H-indol-2-yl]methyl]benzoic acid] | 101 | 724 | 61 | 808 | – | –
12 | O=C(O)c1ccc(Cc2cc3cc(Cl)ccc3n2S(=O)(=O)c2ccc3c(c2)OCCCO3)cc1 [Example 178] | 36 | 1200 | 45 | 1030 | – | –
13 | O=C(O)c1ccc(Cc2cc3cc(Cl)ccc3n2S(=O)(=O)c2cc3ccccc3o2)cc1 [Example 177, 4-[[1-[benzofuran-2-sulfonyl]-5-(chloro)-1H-indol-2-yl]methyl]benzoic acid] | 17 | > 10000 | 39 | > 10000 | – | –
14 | CC(C)c1cccc(S(=O)(=O)n2c(Cc3ccc(C(=O)O)cc3)cc3cc(Cl)ccc32)c1 [Example 51, 4-[[5-chloro-1-[[3-(1-methylethyl)phenyl]sulfonyl]-1H-indol-2-yl]-methyl]benzoic acid] | 69 | 1130 | 74 | 801 | – | –
15 | CCc1ccc(S(=O)(=O)n2c(Cc3ccc(C(=O)O)cc3)cc3cc(Cl)ccc32)cc1 [Example 159, 4-[[1-[4-ethyl-phenylsulfonyl]-5-(chloro)-1H-indol-2-yl]methyl]benzoic acid] | 45 | 785 | 66 | 319 | – | –
16 | Cn1nccc1-c1cccc(S(=O)(=O)n2c(Cc3ccc(C(=O)O)cc3)cc3cc(C(F)(F)F)ccc32)c1 [Example 20, 4-[[1-[[3-(1-methyl-1H-pyrazol-5-yl)phenyl]sulfonyl]-5-(trifluoromethyl)-1H-indol-2-yl]methyl]benzoic acid] | 44 | 617 | 54 | 295 | – | –
17 | O=C(O)c1ccc(Cc2cc3cc(C(F)(F)F)ccc3n2S(=O)(=O)c2cccc(C3CC3)c2)cc1 [Example 59, 4-[1-(3-cyclopropyl-benzenesulfonyl)-5-trifluoromethyl-1H-indol-2-ylmethyl]-benzoic acid] | 31 | 297 | 70 | 274 | – | –
18 | CC(C)(C)c1cccc(S(=O)(=O)n2c(Cc3nc(C(=O)O)cs3)cc3cc(C(F)(F)F)ccc32)c1 [Example 89, 2-[[1-[[3-(1,1-dimethylethyl)-phenyl]sulfonyl]-5-trifluoromethyl-1H-indol-2-yl]methyl]-thiazole-4-carboxylic acid] | 62 | 611 | 77 | 265 | – | –
19 | CN1CCOc2ccc(S(=O)(=O)n3c(Cc4ccc(C(=O)O)c(Cl)c4)cc4cc(C(F)(F)F)ccc43)cc21 [Example 211, 4-[[1-[[4-methyl-3,4-dihydro-2H-benzo[1,4]oxazin-6-yl]-sulfonyl]-5-trifluoromethyl-1H-indol-2-yl]methyl]-2-chlorobenzoic acid] | 56 | 465 | 83 | 385 | – | –
20 | CN1CCOc2ccc(S(=O)(=O)n3c(Cc4ccc(F)c(C(=O)O)c4)cc4cc(C(F)(F)F)ccc43)cc21 [Example 212, 3-[[1-[[4-methyl-3,4-dihydro-2H-benzo[1,4]oxazin-6-yl]-sulfonyl]-5-trifluoromethyl-1H-indol-2-yl]methyl]-6-fluorobenzoic acid] | 81 | 40 | 80 | 19 | – | –
21 | CC(C)c1ccc(S(=O)(=O)n2c(Cc3ccc(C(=O)O)c(Cl)c3)cc3cc(C(F)(F)F)ccc32)cc1 [Example 209, 4-[[1-[[4-(1-methylethyl)-phenyl]sulfonyl]-5-trifluoromethyl-1H-indol-2-yl]methyl]-2-chlorobenzoic acid] | 51 | 741 | 69 | 333 | – | –
22 | Cc1c(Cc2nc(C(=O)O)cs2)n(S(=O)(=O)c2cccc(C(C)(C)C)c2)c2ccc(C(F)(F)F)cc12 [Example 86, 2-[[1-[[3-(1,1-dimethylethyl)-phenyl]sulfonyl]-3-methyl-5-(trifluoro-methyl)-1H-indol-2-yl]methyl]-thiazole-4-carboxylic acid] | 34 | 1480 | 56 | 490 | – | –
23 | CC(C)(C)c1cccc(S(=O)(=O)n2c(Cc3csc(C(=O)O)c3)cc3cc(C(F)(F)F)ccc32)c1 [Example 70, 4-[[1-[[3-(1,1-dimethylethyl)-phenyl]sulfonyl]-5-trifluoromethyl-1H-indol-2-yl]methyl]-thiophene-2-carboxylic acid] | 91 | 8 | 94 | 5 | – | –
24 | CS(=O)(=O)n1c(Cc2ccc(C(=O)O)cc2)cc2cc(Cl)ccc21 [Example 181, 4-[[5-chloro-1-(methylsulfonyl)-1H-indol-2-yl]methyl]benzoic acid] | 152 | 4070 | 111 | 1360 | – | –
25 | CC(C)(CO)c1cccc(S(=O)(=O)n2c(Cc3ccc(C(=O)O)cc3)cc3cc(C(F)(F)F)ccc32)c1 [Example 231, 4-[[1-[[3-(2-hydroxy-1,1-dimethylethyl)phenyl]sulfonyl]-5-(trifluoromethyl)-1H-indol-2-yl]methyl]benzoic acid] | 62 | 164 | 81 | 65 | – | –
26 | O=C(O)c1ccc(Cc2cc3cc(Cl)ccc3n2S(=O)(=O)c2ccc(-c3cccc(F)c3)cc2)cc1 [Example 172, 4-[[1-[3′-fluoro-biphenyl-4-sulfonyl]-5-(chloro)-1H-indol-2-yl]methyl]benzoic acid] | 47 | 567 | 82 | 117 | – | –
